System: C57BL/6JNarl mice
Experiment: Hepatic triglycerides after 7 weeks of lactoferrin, chromium or lactoferrin+chromium in high-fat-diet mice
Format: in vivo
Settings: 10 mice in each group
Description: Male C57BL/6JNarl mice (n=70) fed with high fat diet (high-fat Rodent TestDiet, PMI International Inc., MO, USA; 67% of calories provided by fat), age 8 weeks, are randomly divided into the control group, the low-dose lactoferrin group (NZMP lactoferrin, New Zealand, 40 mg/kg BW/day), the high-dose lactoferrin group (80 mg/kg BW/day), the low-dose chromium group (CrCl3·6H2O, Sigma, Cr^+3 40 μg/kg BW/day), the high dose chromium group (Cr^+3 80 μg/kg BW/day), the low-dose lactoferrin+chromium group (lactoferrin 40 mg/kg BW/day+Cr^+3 40 μg/kg BW/day), and the high-dose lactoferrin+chromium group (lactoferrin 80 mg/kg BW/day+Cr^+3 80 μg/kg BW/day) (10 mice in each group). After supplementation for 7 weeks, the C57BL/6JNarl mice are sacrificed and their livers are harvested. Then, the level of hepatic triglycerides is analyzed. […] However, no significant difference between the other groups is found.

O.O.O.O.O.O.[Cl][Cr]([Cl])[Cl] [chromium, CrCl3·6H2O]
Hepatic triglycerides, High-dose (High-dose: lactoferrin 80 mg/kg BW/day and/or Cr+3 80 μg/kg BW/day): 19.0 ± 5.7 μ mol/g liver | Hepatic triglycerides, Low-dose (Low-dose: lactoferrin 40 mg/kg BW/day and/or Cr+3 40 μg/kg BW/day): 18.4 ± 8.1 μ mol/g liver

Source: patent US20120064176A1, “COMPOSITION FOR PREVENTING AND TREATING FATTY LIVER” (National Chung Hsing University, priority 2008, published 2012)
